According to ChEMBL document CHEMBL1148809, “Biological evaluation, structure-activity relationships, and three-dimensional quantitative structure-activity relationship studies of dihydro-beta-agarofuran sesquiterpenes as modulators of P-glycoprotein-dependent multidrug resistance” (J Med Chem, 2007):

How the values were obtained:
[1] = target: ATP-dependent translocase ABCB1 (Homo sapiens, UniProt P08183); assay: (§1) Inhibition of human Pgp-mediated DNR transport in NIH3T3 cells by microplate assay; assay type: cell-based, Mus musculus
Sequence of ATP-dependent translocase ABCB1 (P08183 whole entry): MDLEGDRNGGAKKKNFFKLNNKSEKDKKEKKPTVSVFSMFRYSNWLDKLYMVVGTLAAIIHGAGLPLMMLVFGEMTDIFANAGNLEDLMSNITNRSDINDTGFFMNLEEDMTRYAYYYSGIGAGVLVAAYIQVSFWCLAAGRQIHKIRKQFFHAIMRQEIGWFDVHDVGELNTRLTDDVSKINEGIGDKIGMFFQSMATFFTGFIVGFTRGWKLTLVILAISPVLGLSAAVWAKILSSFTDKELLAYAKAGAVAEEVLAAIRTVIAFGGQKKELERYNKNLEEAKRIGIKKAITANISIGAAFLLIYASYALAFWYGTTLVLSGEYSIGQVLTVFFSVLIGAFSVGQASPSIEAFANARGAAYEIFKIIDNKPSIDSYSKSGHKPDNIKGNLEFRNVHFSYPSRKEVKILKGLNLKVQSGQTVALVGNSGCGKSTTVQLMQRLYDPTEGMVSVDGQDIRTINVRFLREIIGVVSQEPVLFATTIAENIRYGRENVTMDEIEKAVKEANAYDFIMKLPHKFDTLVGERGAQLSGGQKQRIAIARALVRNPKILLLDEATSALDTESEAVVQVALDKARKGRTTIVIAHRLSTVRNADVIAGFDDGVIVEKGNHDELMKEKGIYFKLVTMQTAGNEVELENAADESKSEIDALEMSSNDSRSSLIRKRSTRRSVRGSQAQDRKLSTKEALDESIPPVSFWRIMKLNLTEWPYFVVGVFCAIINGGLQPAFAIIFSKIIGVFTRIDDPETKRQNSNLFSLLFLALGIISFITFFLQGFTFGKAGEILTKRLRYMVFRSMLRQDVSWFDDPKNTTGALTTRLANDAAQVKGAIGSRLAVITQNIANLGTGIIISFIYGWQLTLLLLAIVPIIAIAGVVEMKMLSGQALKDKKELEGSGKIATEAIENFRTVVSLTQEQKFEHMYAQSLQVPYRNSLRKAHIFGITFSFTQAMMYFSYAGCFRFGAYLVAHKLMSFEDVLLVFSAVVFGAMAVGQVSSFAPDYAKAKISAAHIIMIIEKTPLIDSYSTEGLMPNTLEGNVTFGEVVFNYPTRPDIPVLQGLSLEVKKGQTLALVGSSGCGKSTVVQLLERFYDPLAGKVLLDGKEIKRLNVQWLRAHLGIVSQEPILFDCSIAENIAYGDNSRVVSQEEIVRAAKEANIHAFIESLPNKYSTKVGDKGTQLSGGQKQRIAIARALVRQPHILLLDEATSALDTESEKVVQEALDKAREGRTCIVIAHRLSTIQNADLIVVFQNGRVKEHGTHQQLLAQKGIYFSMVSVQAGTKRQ

[2] = Partition coefficient, log P of the compound; assay type: physicochemical; conditions: octanol/water
[3] = target: P-gp (ABCB1) (Homo sapiens, UniProt P08183); assay: as §1; assay type: cell-based, Mus musculus; conditions: mouse, NIH3T3 cells expressing human P-gp, probe DNR; read-out: Imax
Sequence of P-gp (ABCB1) (P08183 whole entry): as above

| Structure (SMILES) | Ki ([1]; read-out: Ki) [µM] | logP ([2]; read-out: LogP) | Emax [3] [%] | logP [2] | Ki ([1]; read-out: Log Ki (converted)) [µM] |
| --- | --- | --- | --- | --- | --- |
| CC(=O)O[C@H]1C[C@@](C)(O)[C@]23OC(C)(C)[C@H](C[C@H](OC(=O)c4ccco4)[C@]2(C)[C@H]1OC(C)=O)[C@H]3OC(C)=O | 100 | 3.8 |  |  |  |
| CC(=O)OC[C@]12[C@H](OC(=O)c3ccccc3)C(=O)[C@@H]3[C@@H](OC(C)=O)[C@]1(OC3(C)C)[C@H](C)C[C@H](OC(C)=O)[C@@H]2OC(C)=O | 2.54 | 6.1 | 62.3 |  |  |
| CC(=O)OC[C@]12[C@H](OC(=O)c3ccccc3)C(=O)[C@@H]3[C@@H](OC(C)=O)[C@]1(OC3(C)C)[C@H](C)C[C@H](OC(C)=O)[C@@H]2O | 18.4 | 5 | 91.7 |  |  |
| CC(=O)OC[C@]12[C@H](OC(C)=O)C(=O)[C@@H]3[C@@H](OC(C)=O)[C@]1(OC3(C)C)[C@H](C)C[C@H](OC(C)=O)[C@@H]2OC(=O)c1ccccc1 | 5.74 | 6.1 | 96.4 |  |  |
| CC(=O)O[C@H]1C[C@@](C)(O)[C@]23OC(C)(C)[C@H]([C@H](OC(=O)c4ccccc4)[C@H](OC(=O)c4ccccc4)[C@]2(CO)[C@H]1OC(C)=O)[C@H]3OC(C)=O | 7.04 | 6.9 | 73 |  |  |
| CC(=O)O[C@@H]1[C@H]2[C@@H](OC(=O)c3ccccc3)[C@@H](OC(=O)c3ccccc3)[C@]3(CO)[C@@H](OC(=O)c4ccccc4)[C@@H](OC(=O)c4ccccc4)C[C@@H](C)[C@@]13OC2(C)C | 1.3 |  | 39.5 | 11.5 | 1.66 |
| CC(=O)OC[C@]12[C@H](OC(=O)c3ccccc3)C(=O)[C@@H]3[C@@H](OC(C)=O)[C@]1(OC3(C)C)[C@](C)(O)C[C@H](OC(=O)c1ccccc1)[C@@H]2OC(=O)c1ccccc1 | 1.03 |  | 80 | 10 |  |
| CC(=O)OC[C@]12[C@H](OC(C)=O)C(=O)[C@@H]3[C@@H](OC(C)=O)[C@]1(OC3(C)C)[C@H](C)C[C@H](OC(C)=O)[C@@H]2OC(C)=O | 9.83 | 4 | 100 |  |  |
| CC(=O)O[C@H]1[C@H](OC(=O)c2ccccc2)[C@@]2(C)[C@@H](OC(=O)c3ccccc3)[C@@H](OC(=O)c3ccccc3)[C@@H]3C[C@]2(OC3(C)C)[C@](C)(O)[C@H]1OC(C)=O | 0.73 | 8.8 | 98.7 |  |  |
| CC(=O)OC[C@]12[C@H](OC(=O)c3ccccc3)C(=O)[C@@H]3[C@@H](O)[C@]1(OC3(C)C)[C@](C)(O)C[C@H](OC(C)=O)[C@@H]2OC(=O)c1ccccc1 | 3.97 | 7.2 | 74.4 |  |  |
| CC(=O)O[C@H]1[C@@H](OC(=O)c2ccco2)C[C@@](C)(O)[C@]23OC(C)(C)[C@H](C[C@H](OC(=O)c4ccco4)[C@]12C)[C@H]3OC(=O)c1ccco1 | 2.19 | 6.5 | 80.5 |  |  |
| CC(=O)OC[C@]12[C@H](OC(C)=O)[C@H](OC(C)=O)[C@@H]3[C@@H](OC(C)=O)[C@]1(O[C@@]3(C)COC(C)=O)[C@](C)(O)[C@@H](OC(C)=O)[C@H](OC(C)=O)[C@@H]2OC(C)=O | 6.97 | 3.6 | 31 |  |  |
| CC(=O)OC[C@]12[C@@H](OC(=O)c3ccccc3)[C@@H](OC(=O)c3ccccc3)[C@@H]3[C@@H](OC(C)=O)[C@]1(OC3(C)C)[C@](C)(O)C[C@H](OC(C)=O)[C@@H]2OC(C)=O | 1.74 | 7.6 | 97 |  |  |
| CC(=O)O[C@@H]1[C@H]2[C@H](O)[C@H](OC(=O)c3ccccc3)[C@]3(C)[C@@H](OC(=O)c4ccccc4)[C@@H](OC(=O)c4ccccc4)C[C@@](C)(O)[C@@]13OC2(C)C | 1.21 | 8.4 | 100 |  |  |
| CC(=O)O[C@H]1[C@@H]2[C@@H](OC(C)=O)[C@]3(OC2(C)C)[C@H](C)C[C@H](OC(=O)c2cccnc2)[C@H](OC(=O)c2ccccc2)[C@@]3(C)[C@H]1OC(=O)c1ccccc1 | 7.72 | 8.7 | 92.3 |  |  |
| CC(=O)OC[C@]12[C@H](OC(=O)c3ccccc3)[C@H](OC(=O)c3ccccc3)[C@@H]3[C@@H](OC(C)=O)[C@]1(OC3(C)C)[C@H](C)C[C@H](OC(=O)c1ccccc1)[C@@H]2OC(C)=O | 33.8 |  | 100 | 10.3 |  |
| CC(=O)OC[C@]12[C@H](OC(=O)c3ccccc3)[C@H](OC(=O)c3ccccc3)[C@@H]3[C@@H](OC(C)=O)[C@]1(OC3(C)C)[C@H](C)C[C@H](OC(=O)c1ccccc1)[C@@H]2OC(=O)c1ccccc1 | 1.98 |  | 29.3 |  |  |
| CC(=O)O[C@H]1C[C@@](C)(O)[C@]23OC(C)(C)[C@H]([C@H](OC(=O)c4ccccc4)[C@H](OC(=O)c4ccccc4)[C@]2(C)[C@H]1OC(=O)c1ccccc1)[C@H]3OC(C)=O | 0.91 |  | 84.9 | 9.2 |  |
| CC(=O)OC[C@]12[C@H](OC(C)=O)C(=O)[C@@H]3[C@@H](OC(C)=O)[C@]1(OC3(C)C)[C@](C)(O)[C@@H](OC(C)=O)[C@H](OC(C)=O)[C@@H]2OC(=O)c1ccccc1 | 6.52 | 6 | 53.9 |  | 0.302 |
| CC(=O)OC[C@]12[C@H](OC(=O)c3ccccc3)C(=O)[C@@H]3[C@@H](OC(C)=O)[C@]1(OC3(C)C)[C@](C)(O)C[C@H](OC(C)=O)[C@@H]2OC(=O)c1ccccc1 | 3.01 | 7.7 | 81.1 |  |  |
| CC(=O)OC[C@@]12[C@@H](OC(=O)c3ccccc3)CC[C@@](C)(O)[C@]13OC(C)(C)[C@H]([C@@H](OC(=O)c1ccccc1)[C@H]2OC(=O)c1ccccc1)[C@H]3OC(C)=O | 1.22 |  | 100 | 9.6 |  |
| CC(=O)OC[C@]12[C@@H](OC(=O)c3ccccc3)[C@@H](OC(=O)c3ccccc3)[C@@H]3[C@@H](OC(C)=O)[C@]1(OC3(C)C)[C@H](C)C[C@H](OC(C)=O)[C@@H]2OC(C)=O | 1.71 | 8.3 | 86.2 |  |  |
| CCCCCO[C@@H]1[C@@H]2[C@@H](OC(C)=O)[C@@]3(OC2(C)C)[C@@](COC(C)=O)([C@@H](OC(C)=O)CC[C@@]3(C)O)[C@@H]1OC(=O)c1ccccc1 | 1.83 | 7 | 87.7 |  |  |
| CC(=O)OC[C@]12[C@H](OC(=O)c3ccccc3)C(=O)[C@@H]3[C@@H](OC(C)=O)[C@]1(OC3(C)C)[C@H](C)C[C@H](OC(C)=O)[C@@H]2OC(=O)c1ccccc1 | 1.63 | 8.1 | 81.6 |  |  |

Continued, in another order:

| Ki ([1]; read-out: Ki) [µM] | logP ([2]; read-out: LogP) | Emax [3] [%] | logP [2] | Structure (SMILES) | Ki ([1]; read-out: Log Ki (converted)) [µM] |
| --- | --- | --- | --- | --- | --- |
| 1.45 | 7.5 | 100 |  | CC(=O)O[C@H]1[C@H](OC(=O)c2cccnc2)[C@@]2(C)[C@@H](OC(=O)c3ccccc3)[C@@H](OC(=O)c3ccccc3)[C@@H]3C[C@]2(OC3(C)C)[C@](C)(O)[C@H]1OC(C)=O |  |
| 4.25 | 6.2 | 63.7 |  | CC(=O)O[C@H]1[C@@H](O)[C@H](OC(=O)c2ccccc2)[C@@]2(C)[C@@H](OC(=O)/C=C/c3ccccc3)C[C@@H]3C[C@]2(OC3(C)C)[C@@H]1C |  |
| 7.61 | 6.5 | 100 |  | CC(=O)O[C@@H]1C[C@@](C)(O)[C@@]23C[C@@H](C[C@H](OC(=O)/C=C/c4ccccc4)[C@]2(C)[C@H]1OC(=O)c1ccccc1)C(C)(C)O3 |  |
| 7.59 | 6.6 | 89.8 |  | CC(=O)O[C@@H]1C[C@@](C)(O)[C@@]23C[C@@H](C[C@H](OC(=O)c4ccccc4)[C@]2(C)[C@H]1OC(=O)c1ccccc1)C(C)(C)O3 |  |
| 6.94 | 6 | 76.6 |  | C[C@@H]1[C@@H](O)[C@@H](O)[C@H](OC(=O)c2ccccc2)[C@@]2(C)[C@@H](OC(=O)/C=C/c3ccccc3)C[C@@H]3C[C@]12OC3(C)C |  |
| 0.58 | 8.2 | 100 |  | CC(=O)OC[C@]12[C@@H](OC(=O)c3ccccc3)C[C@@H]3[C@@H](OC(=O)c4ccccc4)[C@]1(OC3(C)C)[C@](C)(O)C[C@H](OC(=O)c1cccnc1)[C@@H]2OC(C)=O |  |
| 1.36 | 7.8 | 100 |  | CC(=O)O[C@H]1[C@@H]2C[C@@]3(OC2(C)C)[C@](C)([C@H]1OC(=O)c1ccccc1)[C@@H](OC(=O)c1cccnc1)[C@H](OC(C)=O)[C@H](OC(=O)c1ccccc1)[C@@]3(C)O |  |
| 2.72 | 7.4 | 75.8 |  | CC(=O)O[C@@H]1[C@H](OC(C)=O)[C@@H](C)[C@@]23C[C@@H](C[C@H](OC(=O)/C=C/c4ccccc4)[C@]2(C)[C@H]1OC(=O)c1ccccc1)C(C)(C)O3 |  |
| 2.07 | 7.6 | 95.2 |  | CC(=O)O[C@H]1[C@H](OC(=O)/C=C/c2ccccc2)[C@@]2(C)[C@@H](OC(=O)c3ccccc3)C[C@@H]3C[C@]2(OC3(C)C)[C@](C)(O)[C@H]1OC(=O)c1cccnc1 |  |
| 25 | 8 | 100 |  | CC(=O)O[C@H]1[C@H](OC(=O)c2ccccc2)[C@@]2(C)[C@@H](OC(=O)/C=C/c3ccccc3)C[C@@H]3[C@@H](OC(C)=O)[C@]2(OC3(C)C)[C@](C)(O)[C@H]1OC(=O)c1cccnc1 |  |
| 3.75 | 8 | 98.8 |  | CC(=O)O[C@H]1[C@H](OC(=O)c2ccccc2)[C@@]2(C)[C@@H](OC(=O)c3ccccc3)C[C@@H]3[C@@H](OC(C)=O)[C@]2(OC3(C)C)[C@](C)(O)[C@H]1OC(=O)c1cccnc1 |  |
| 11.3 |  | 80.7 | 9.4 | CC(=O)O[C@H]1[C@@H]2[C@@H](OC(C)=O)[C@@]3(OC2(C)C)[C@](C)([C@H]1OC(=O)c1ccccc1)[C@@H](OC(=O)c1ccccc1)[C@@H](OC(=O)c1ccccc1)C[C@@]3(C)O |  |
| 8.46 | 6.3 | 82.9 |  | CC(=O)O[C@@H]1[C@H](O)[C@@H](C)[C@@]23C[C@@H](C[C@H](OC(=O)/C=C/c4ccccc4)[C@]2(C)[C@H]1OC(=O)c1ccccc1)C(C)(C)O3 |  |
| 1.27 | 6.8 | 88.7 |  | CC(=O)O[C@H]1[C@@H]2C[C@@]3(OC2(C)C)[C@](C)([C@H]1OC(=O)c1ccccc1)[C@@H](OC(=O)c1ccccc1)[C@H](OC(C)=O)[C@H](OC(C)=O)[C@@]3(C)O |  |
